Experiments:
[1] = system: constitutive active colorectal cancer cell (CRC) Wnt pathway (HCT116-TOP); experiment: Cellular reporter assay, HCT116 Super TopFlash (TOP), constitutive active Wnt pathway; type: cell-based; settings: Homo sapiens, HCT-116; HCT116 Super TopFlash reporter cells, luciferase expression, 36 hours incubation, dilution series 50 μM to 15 nM
Protocol: In order to discover and characterize small molecules which inhibit the constitutive active colorectal cancer cell (CRC) Wnt pathway, a cellular reporter assay was employed. The corresponding assay cell was generated by transfection of the colorectal cancer cell line HCT116 (ATCC, #CCL-247) with the Super TopFlash vector (Morin, Science 275, 1997, 1787-1790; Molenaar et al., Cell 86 (3), 1996, 391-399). The HCT116 cell line is cultivated at 37° C. and 5% CO2 in DMEM/F-12 (Life Technologies, #11320-074), supplemented with 2 mM glutamine, 20 mM HEPES, 1.4 mM pyruvate, 0.15% Na-bicarbonate and 10% foetal bovine serum (GIBCO, #10270), this cancer cell line is pathophysiological relevant since it carries a deletion of position S45 in the β-catenin gene, leading to constitutive active Wnt signaling. Stable transfectants were generated by cotransfection with pcDNA3 and selection of stable transfected cells with 1 mg/ml G418.
(§1) In preparation of the assay, the two cell lines were plated 24 hours before at 10000 cells per well of a 384 micro titre plate (MTP) in 30 μL growth medium. Selective inhibitory activity for small molecules on the mutated Wnt pathway was determined after parallel incubation of both (TOP and FOP) HCT116 reporter cell lines with a compound dilution series from 50 μM to 15 nM in steps of 3.16-fold dilutions in CAFTY buffer (130 mM NaCI, 5 mM KCI, 20 mM HEPES, 1 mM MgCl2, 5 mM NaHCO3, pH 7.4) containing 2 mM Ca^2+ and 0.01% BSA. The compounds were thereby serially prediluted in 100% DMSO and thereafter in addition 50 fold into the CAFTY compound dilution buffer (described above). From this dilution 10 μL were added to the cells in 30 μL growth medium and incubated for 36 hours at 37° C. and 5% CO2. Thereafter luciferase assay buffer (1:1 mixture of luciferase substrate buffer (20 mM Tricine, 2.67 mM MgSO4, 0.1 mM EDTA, 4 mM DTT, 270 μM Coenzyme A, 470 μM Luciferin, 530 μM ATP, ph adjusted to pH 7.8 with a sufficient volume of 5M NaOH) and Triton buffer (30 mL Triton X-100, 115 mL glycerol, 308 mg Dithiothreitol, 4.45 g Na2HPO4. 2 H2O, 3.03 g TRIS HCl, ad 1I H2O, pH 7.8) was added as equal volume to the compound solution on the cells to determine luciferase expression as a measure of Wnt signaling activity in a luminometer.

HCT116-FOP = experiment: Control reporter assay, HCT116 cells with FOP control vector (non-functional TCF elements); type: cell-based; settings: Homo sapiens, HCT-116, luciferase expression, 36 hours incubation, dilution series 50 μM to 15 nM, read-out: HCT116-FOP IC50 [M] mol/L]
Protocol: In a parallel approach, HCT116 cells were cotransfected with the FOP control vector and pcDNA3. The FOP vector is identical to the TOP construct, but it contains instead of functional TCF elements a randomized, non-functional sequence. For this transfection a stable transfected cell line was generated as well.
as §1

Compound | IC50 [1] | IC50 (HCT116-FOP)
CN1CCN(CC(=O)Nc2cc(C(=O)Nc3nnc(N4CCCCC4)s3)ccc2OC(F)(F)F)CC1 [Example 1, 3-{[(4-methylpiperazin-1-yl)pacetyl]amino}-N-[5-(piperidin-1-yl)-1,3,4-thiadiazol-2-yl]-4-(trifluoromethoxy)benzamide] | 0.36 µM | ≥ 5e-05 M
CN1CCN(CC(=O)Nc2cc(C(=O)Nc3nnc(N4CCN(C(=O)OC(C)(C)C)CC4)s3)ccc2OC(F)(F)F)CC1 [Example 2] | 0.0415 µM | ≥ 5e-05 M
CC(C)(C)OC(=O)N1CCN(c2nnc(NC(=O)c3ccc(OC(F)(F)F)c(NC(=O)CN4CCOCC4)c3)s2)CC1 [Example 3, tert-butyl 4-[5-({3-[(morpholin-4-ylacetyl)amino]-4-(trifluoromethoxy)benzoyl}amino)-1,3,4-thiadiazol-2-yl]piperazine-1-carboxylate] | 0.086 µM | ≥ 5e-05 M
CN1CCN(CC(=O)Nc2cc(C(=O)Nc3nnc(N4CCCC4)s3)ccc2OC(F)(F)F)CC1 [Example 4, 3-{[(4-methylpiperazin-1-yl)pacetyl]amino}-N-[5-(pyrrolidin-1-yl)-1,3,4-thiadiazol-2-yl]-4-(trifluoromethoxy)benzamide] | 0.492 µM | ≥ 5e-05 M
CN1CCN(CC(=O)Nc2cc(C(=O)Nc3nnc(C4CCCCC4)s3)ccc2OC(F)(F)F)CC1 [Example 5, N-(5-cyclohexyl-1,3,4-thiadiazol-2-yl)-3-{[(4-methylpiperazin-1-yl)pacetyl]amino}-4-(trifluoromethoxy)benzamide] | 0.27 µM | ≥ 5e-05 M
COC(=O)N1CCN(c2nnc(NC(=O)c3ccc(OC(F)(F)F)c(NC(=O)CN4CCN(C)CC4)c3)s2)CC1 [Example 6, methyl 4-(5-{[3-{[(4-methylpiperazin-1-yl)pacetyl]amino}-4-(trifluoromethoxy)benzoyl]amino}-1,3,4-thiadiazol-2-yl)ppiperazine-1-carboxylate] | 0.0655 µM | 4.65e-05 M
CC1CCN(c2nnc(NC(=O)c3ccc(OC(F)(F)F)c(NC(=O)CN4CCN(C)CC4)c3)s2)CC1 [Example 7] | 0.11 µM | ≥ 5e-05 M
CN1CCN(CC(=O)Nc2cc(C(=O)Nc3nnc(N4CCC(C)(O)CC4)s3)ccc2OC(F)(F)F)CC1 [Example 8, N-[5-(4-hydroxy-4-methylpiperidin-1-yl)-1,3,4-thiadiazol-2-yl]-3-{[(4-methylpiperazin-1-yl)pacetyl]amino}-4-(trifluoromethoxy)benzamide] | 0.655 µM | ≥ 5e-05 M
CN1CCN(CC(=O)Nc2cc(C(=O)Nc3nnc(N4CCN(C(=O)C5CC5)CC4)s3)ccc2OC(F)(F)F)CC1 [Example 9] | 0.83 µM | 1.8e-05 M
CC(C)(O)C1CCN(c2nnc(NC(=O)c3ccc(OC(F)(F)F)c(NC(=O)CN4CCOCC4)c3)s2)CC1 [Example 10] | 0.84 µM | ≥ 5e-05 M
COC1CCN(c2nnc(NC(=O)c3ccc(OC(F)(F)F)c(NC(=O)CN4CCN(C)CC4)c3)s2)CC1 [Example 11, N-{5-(4-methoxypiperidin-1-yl)-1,3,4-thiadiazol-2-yl]-3-{[(4-methylpiperazin-1-yl)acetyl]amino}-4-(trifluoromethoxy)benzamide] | 0.22 µM | ≥ 5e-05 M
CN1CCN(CC(=O)Nc2cc(C(=O)Nc3nnc(N4CCC(C)(C)CC4)s3)ccc2OC(F)(F)F)CC1 [Example 12, 4-(2-{[5-{[5-(4,4-dimethylpiperidin-1-yl)-1,3,4-thiadiazol-2-yl]carbamoyl}-2-(trifluoromethoxy)phenyl]amino}-2-oxoethyl)-1-methylpiperazin-1-ium hexafluorophosphate] | 0.26 µM | 1.5e-05 M
CCOC(=O)N1CCN(c2nnc(NC(=O)c3ccc(OC(F)(F)F)c(NC(=O)CN4CCOCC4)c3)s2)CC1 [Example 13, ethyl 4-[5-({3-[(morpholin-4-yl-acetyl)amino]-4-(trifluoromethoxy)benzoyl}-amino)-1,3,4-thiadiazol-2-yl]piperazine-1-carboxylate] | 1.4 µM | ≥ 5e-05 M
CN1CCN(CC(=O)Nc2cc(C(=O)Nc3nnc(N4CCC(O)CC4)s3)ccc2OC(F)(F)F)CC1 [Example 14, N-[5-(4-hydroxypiperidin-1-yl)-1,3,4-thiadiazol-2-yl]-3-{[(4-methylpiperazin-1-yl)acetyl]amino}-4-(trifluoromethoxy)benzamide] | 1.45 µM | ≥ 5e-05 M
CN(C)S(=O)(=O)N1CCN(c2nnc(NC(=O)c3ccc(OC(F)(F)F)c(NC(=O)CN4CCOCC4)c3)s2)CC1 [Example 15, N-{5-[4-(dimethylsulfamoyl)-piperazin-1-yl]-1,3,4-thiadiazol-2-yl}-3-[(morpholin-4-ylacetyl)-amino]-4-(trifluoromethoxy) benzamide] | 1.99 µM | ≥ 5e-05 M
CN1CCN(CC(=O)Nc2cc(C(=O)Nc3nnc(N4CCN(C(=O)N(C)C)CC4)s3)ccc2OC(F)(F)F)CC1 [Example 16, N,N-dimethyl-4-(5-{[3-{[(4-methylpiperazin-1-yl)acetyl]-amino}-4-(trifluoromethoxy)-benzoyl]amino}-1,3,4-thiadiazol-2-yl)piperazine-1-carboxamide] | 2.1 µM | ≥ 5e-05 M
CCOC(=O)N1CCN(c2nnc(NC(=O)c3ccc(OC(F)(F)F)c(NC(=O)CN4CCN(C)CC4)c3)s2)CC1 [Example 17, ethyl 4-(5-{[3-{[(4-methylpiperazin-1-yl)acetyl]-amino}-4-(trifluoromethoxy)-benzoyl]amino}-1,3,4-thiadiazol-2-yl)piperazine-1-carboxylate] | 2.85 µM | 4.1e-05 M
CC(=O)N1CCN(c2nnc(NC(=O)c3ccc(OC(F)(F)F)c(NC(=O)CN4CCN(C)CC4)c3)s2)CC1 [Example 18, N-[5-(4-acetylpiperazin-1-yl)-1,3,4-thiadiazol-2-yl]-3-{[(4-methylpiperazin-1-yl)-acetyl]amino}-4-(trifluoromethoxy)benzamide] | 3.15 µM | ≥ 5e-05 M
CN1CCN(CC(=O)Nc2cc(C(=O)Nc3nnc(N4CCN(S(=O)(=O)N(C)C)CC4)s3)ccc2OC(F)(F)F)CC1 [Example 19, N-{5-[4-(dimethylsulfamoyl)-piperazin-1-yl]-1,3,4-thiadiazol-2-yl}-3-{[(4-methylpiperazin-1-yl)acetyl]-amino}-4-(trifluoromethoxy)-benzamide] | 3.8 µM | ≥ 5e-05 M
O=C(CN1CCOCC1)Nc1cc(C(=O)Nc2nnc(N3CCN(C(=O)C4CC4)CC3)s2)ccc1OC(F)(F)F [Example 20, N-{5-[4-(cyclopropylcarbonyl)-piperazin-1-yl]-1,3,4-thiadiazol-2-yl}-3-[(morpholin-4-ylacetyl)amino]-4-(trifluoromethoxy)benzamide] | 3.91 µM | ≥ 5e-05 M
COC(=O)C1CCN(c2nnc(NC(=O)c3ccc(OC(F)(F)F)c(NC(=O)CN4CCOCC4)c3)s2)CC1 [Example 21, methyl 1-[5-({3-[(morpholin-4-ylacetyl)amino]-4-(trifluoromethoxy)benzoyl}-amino)-1,3,4-thiadiazol-2-yl]-piperidine-4-carboxylate] | 4.1 µM | ≥ 5e-05 M
COC(=O)C1CCN(c2nnc(NC(=O)c3ccc(OC(F)(F)F)c(NC(=O)CN4CCN(C)CC4)c3)s2)CC1 [Example 22, methyl 1-(5-{[3-{[(4-methyl-piperazin-1-yl)acetyl]amino}-4-(trifluoromethoxy)benzoyl]-amino}-1,3,4-thiadiazol-2-yl)-piperidine-4-carboxylate] | 4.3 µM | ≥ 5e-05 M
O=C(CN1CCOCC1)Nc1cc(C(=O)Nc2nnc(C3CCCCC3)s2)ccc1OC(F)(F)F [Example 23, N-(5-cyclohexyl-1,3,4-thiadiazol-2-yl)-3-[(morpholin-4-ylacetyl)amino]-4-(trifluoromethoxy)benzamide] | 4.59 µM | ≥ 5e-05 M
COC(=O)N1CCN(c2nnc(NC(=O)c3ccc(OC(F)(F)F)c(NC(=O)CN4CCOCC4)c3)s2)CC1 [Example 24, methyl 4-[5-({3-[(morpholin-4-ylacetyl)amino]-4-(trifluoromethoxy)benzoyl}-amino)-1,3,4-thiadiazol-2-yl]piperazine-1-carboxylate] | 4.6 µM | ≥ 5e-05 M

Source: US20180044306A1, “1,3,4-THIADIAZOL-2-YL-BENZAMIDE DERIVATIVES AS INHIBITORS OF THE WNT SIGNALLING PATHWAY” (Bayer Pharma Aktiengesellschaft, priority 2015, published 2018)
